Test results as given in publication PMC8585833, “Serum concentrations of antidepressants, antipsychotics, and antiepileptics over the bariatric surgery procedure” (European Journal of Clinical Pharmacology, 2021).
Where two headings read alike, the source gives them in different places.

Tests used:
[1] = Dose-adjusted steady-state trough serum concentrations before and after low-calorie diet and bariatric surgery; assay type: in vivo, human; settings: for Reduction of dose-adjusted concentration on the last day of sampling: post-surgery versus pre-surgery, substances with samples from six or more participants; for Course of dose-adjusted concentration after surgery: following the low-calorie diet; for Change in dose-adjusted concentration over the pre-surgery low-calorie diet: after the pre-surgery diet, before surgery, median weight reduction 6 kg
Excerpt: We designed the study as a naturalistic longitudinal, prospective case series with intra-individual comparisons of drug concentrations over time, before and up to 1 year after the surgical procedure.
The participants contributed blood samples to the current study during routine pre-surgery visits before, and post-surgery visits about 8 weeks, 6 months, and 1 year after, the surgery. Pre-surgery sampling generally occurred twice: at an initial preoperative assessment visit, and just before surgery. Between these visits, that is, before surgery, patients were required to adhere to a low-calorie diet and show a weight reduction. The samples were stored as serum in −80 °C at a biobank, and analysed after all samples had been collected.
Before every routine visit at which the sampling was to occur, we contacted the participants by telephone to systematically obtain information on the current dose as well as adherence to the drug treatment in question over the 2 preceding weeks. Samples were excluded from the data set if non-adherence less than four elimination half-lives prior to sampling was reported; exceptions were made for occasional missed doses of fluoxetine. Half-lives applied were those described for a drug or its metabolite in the summary of product characteristics. We also asked for and recorded concomitant drug treatment, weight, and smoking status. To be able to relate potential changes in concentration to health consequences, we asked the participants during the follow-up phone calls, using an open question, if anything had happened to their health since the last visit. To obtain trough blood concentrations, we strived to schedule the routine visits before lunchtime and the participants were instructed not to take morning tablets before the sampling.
Specific substances were analysed concomitantly, using clinical routine methods, at accredited laboratories at the Department of Clinical Chemistry, Sahlgrenska University Hospital, Gothenburg, Sweden, or (as for gabapentin, hydroxybupropion, mianserine, pregabalin, paroxetine and topiramate) at the Department of Clinical Pharmacology, St. Olav’s Hospital, Trondheim, Norway. Analysis methods were based on liquid chromatography/tandem mass spectrometry or (for lamotrigine and valproic acid) enzyme immunoassay.
Statistical analyses were performed using SPSS, version 23.0 (IBM SPSS Statistics for Windows, Armonk, NY, USA). Participants treated with the same substance before and after surgery, with one or more trough sample concentrations available, were included in the analysis. To allow interindividual and intraindividual comparisons, serum concentrations were adjusted for defined daily dose (DDD). For example, since DDD for citalopram is 20 mg, a DDD-adjusted citalopram concentration of 100 nmol/L could represent a measured concentration of 50, 100, or 200 nmol/L, given a daily dose of 10, 20, or 40 mg, respectively. To compare pre- to post-surgery concentrations, as well as pre- to post-diet concentrations, we used Wilcoxon signed rank test for substances with samples available for six or more individuals. We used Spearman’s correlation to explore the relationship between the ratio of the post-/pre-diet concentrations and (i) the distribution coefficient for the drug in question, i.e., the logarithm of the ratio of its concentration in a lipophilic and a hydrophilic solution (logD), as well as (ii) the weight loss in kilograms for pregabalin.

[2] = source not stated, cited from earlier work
[3] = historical data or matched non-surgery subjects as controls; cited from earlier work
[4] = Table 2A, trough serum, adjusted for dose in DDDs
[5] = Table 2A, trough serum, adjusted for dose in DDDs, last observation carried forward, median 379 days after surgery
[6] = Table 2B, trough serum, adjusted for dose in DDDs, after pre-surgery low-calorie diet
[7] = Table 2B, trough serum, adjusted for dose in DDDs, before low-calorie diet
[8] = Table 2A, antiepileptics, trough serum, adjusted for dose in DDDs
[9] = Table 2A, antiepileptics, trough serum, adjusted for dose in DDDs, last observation carried forward, median 379 days after surgery
[10] = Table 2B, antiepileptics, trough serum, adjusted for dose in DDDs, after pre-surgery low-calorie diet
[11] = Table 2B, antiepileptics, trough serum, adjusted for dose in DDDs, before low-calorie diet
[12] = human, in vivo, 379 days after surgery (median), trough

SMILES: CN(C)CCC=C1c2ccccc2CCc2ccccc21 [Amitriptyline]
- Dose-adjusted drug concentration Median (IQR), Pre-diet/pre-surgery [1, 4]: 283 (N/A) nmol/L
- Dose-adjusted drug concentration Median (IQR), Post-surgery [1, 5]: 218 (N/A) nmol/L
- Dose-adjusted drug concentration Median (IQR), post-diet [1, 6]: 279 (N/A) nmol/L
- Dose-adjusted drug concentration Median (IQR), pre-diet [1, 7]: 283 (N/A) nmol/L

SMILES: CN(C)CCCC1(c2ccc(F)cc2)OCc2cc(C#N)ccc21 (stereo not drawn) [Citalopram]
- Concentration, Post-surgery ([1]; Case 1, GBP, day +252, drug dose 10 mg): 69 nM
- Concentration, Post-surgery ([1]; Case 1, GBP, day +374, drug dose 20 mg): 158 nM
- Concentration, Baseline ([1]; Case 1, GBP, drug dose 10 mg): 137 nM
- Concentration, Post-surgery ([1]; Case 2, GBP, day +178, drug dose 10 mg): 42 nM
- Concentration, Post-surgery ([1]; Case 2, GBP, day +386, drug dose 20 mg): 90 nM
- Concentration, Baseline ([1]; Case 2, GBP, drug dose 10 mg): 89 nM
- Reduction of dose-adjusted concentration on the last day of sampling [1]: 19%

SMILES: CNCC[C@H](Oc1cccc2ccccc12)c1cccs1 [Duloxetine]
- logD ([2]; octanol/water, pH 7.4): 1.54
- Course of dose-adjusted concentration after surgery [1]: continued to decrease
- Change in dose-adjusted concentration over the pre-surgery low-calorie diet [1]: varied
- Dose-adjusted drug concentration Median (IQR), Pre-diet/pre-surgery ([1]; human, in vivo): 127 (96–203) nmol/L
- Dose-adjusted drug concentration Median (IQR), post-diet ([1]; human, in vivo): 105 (64–235) nmol/L
- Dose-adjusted drug concentration Median (IQR), pre-diet ([1]; human, in vivo): 127 (96–203) nmol/L
- concentration at 379 days after surgery (median), trough ([1]; human, in vivo): 82 nM
- Reduction of dose-adjusted concentration on the last day of sampling [1]: 35%

SMILES: CNCCC(Oc1ccc(C(F)(F)F)cc1)c1ccccc1 (stereo not drawn) [Fluoxetine]
- Course of dose-adjusted concentration after surgery [1]: continued to increase also after surgery
- Dose-adjusted drug concentration Median (IQR), Pre-diet/pre-surgery ([1]; human, in vivo): 221 (157–371) nmol/L
- Dose-adjusted drug concentration Median (IQR), post-diet ([1]; human, in vivo): 263 (182–333) nmol/L
- Dose-adjusted drug concentration Median (IQR), pre-diet ([1]; human, in vivo): 259 (147–379) nmol/L
- concentration at 379 days after surgery (median), trough ([1]; human, in vivo): 294 nM

SMILES: NCC1(CC(=O)O)CCCCC1 [Gabapentin]
- Dose-adjusted drug concentration Median (IQR), Pre-diet/pre-surgery [1, 8]: 34 (N/A) µmol/L
- Dose-adjusted drug concentration Median (IQR), Post-surgery [1, 9]: 35 (N/A) µmol/L
- Dose-adjusted drug concentration Median (IQR), post-diet [1, 10]: 43 (N/A) µmol/L
- Dose-adjusted drug concentration Median (IQR), pre-diet [1, 11]: 28 (N/A) µmol/L
- Change in dose-adjusted concentration over the pre-surgery low-calorie diet [1]: increased

SMILES: C[C@H]1NC(C)(C)CO[C@]1(O)c1cccc(Cl)c1 [Hydroxybupropion]
- Dose-adjusted drug concentration Median (IQR), Pre-diet/pre-surgery [1, 4]: 3,997 (N/A) nmol/L
- Dose-adjusted drug concentration Median (IQR), Post-surgery [1, 5]: 3,298 (N/A) nmol/L
- Dose-adjusted drug concentration Median (IQR), post-diet [1, 6]: 3,067 (N/A) nmol/L
- Dose-adjusted drug concentration Median (IQR), pre-diet [1, 7]: 2,732 (N/A) nmol/L

SMILES: Nc1nnc(-c2cccc(Cl)c2Cl)c(N)n1 [Lamotrigine]
- Dose-adjusted drug concentration Median (IQR), Pre-diet/pre-surgery [1, 8]: 17 (15–23) µmol/L
- Dose-adjusted drug concentration Median (IQR), post-diet [1, 10]: 23 (19–29) µmol/L
- Dose-adjusted drug concentration Median (IQR), pre-diet [1, 11]: 17 (15–25) µmol/L
- Change in dose-adjusted concentration over the pre-surgery low-calorie diet [1]: increased
- concentration at 379 days after surgery (median), trough ([1]; human, oral, Table 2A, antiepileptics, trough serum, adjusted for dose in DDDs, last observation carried forward, median 379 days after surgery, read-out: Dose-adjusted drug concentration Median (IQR), Post-surgery): 18000 nM

SMILES: CN1CCN2c3ncccc3Cc3ccccc3C2C1 (stereo not drawn) [Mirtazapine]
- Concentration, Post-surgery ([1]; Case 3, GBP, day +68, drug dose 15 mg): 30 nM
- Concentration, Post-surgery ([1]; Case 3, GBP, day +368, drug dose 30 mg): 203 nM
- Concentration, Baseline ([1]; Case 3, GBP, drug dose 15 mg): 96 nM
- Concentration, Post-surgery ([1]; Case 4, Sleeve, day 213, drug dose 30 mg): 87 nM
- Concentration, Post-surgery ([1]; Case 4, Sleeve, day 393, drug dose 45 mg): 119 nM
- Concentration, Baseline ([1]; Case 4, Sleeve, drug dose 30 mg): 140 nM
- Change in dose-adjusted concentration over the pre-surgery low-calorie diet [1]: decreased
- Dose-adjusted drug concentration Median (IQR), Pre-diet/pre-surgery ([1]; human, in vivo): 148 (131–170) nmol/L
- Dose-adjusted drug concentration Median (IQR), post-diet ([1]; human, in vivo): 76 (50–102) nmol/L
- Dose-adjusted drug concentration Median (IQR), pre-diet ([1]; human, in vivo): 138 (120–157) nmol/L
- concentration at 379 days after surgery (median), trough ([1]; human, in vivo): 88 nM
- Reduction of dose-adjusted concentration on the last day of sampling [1]: 41%

SMILES: Cc1cc2c(s1)Nc1ccccc1N=C2N1CCN(C)CC1 [Olanzapine]
- Dose-adjusted drug concentration Median (IQR), Pre-diet/pre-surgery ([1]; human, in vivo): 113 (N/A) nmol/L

SMILES: Fc1ccc([C@@H]2CCNC[C@H]2COc2ccc3c(c2)OCO3)cc1 [Paroxetine]
- Dose-adjusted drug concentration Median (IQR), Pre-diet/pre-surgery ([1]; human, in vivo): 22 (N/A) nmol/L
- Dose-adjusted drug concentration Median (IQR), post-diet ([1]; human, in vivo): 69 (N/A) nmol/L
- Dose-adjusted drug concentration Median (IQR), pre-diet ([1]; human, in vivo): 22 (N/A) nmol/L
- Dose-adjusted drug concentration Median (IQR), Post-surgery [1, 12]: 167 (N/A) nmol/L

SMILES: OCCOCCN1CCN(C2=Nc3ccccc3Sc3ccccc32)CC1 [Quetiapine]
- Change in dose-adjusted concentration over the pre-surgery low-calorie diet [1]: decreased
- Dose-adjusted drug concentration Median (IQR), Pre-diet/pre-surgery ([1]; human, in vivo): 848 (N/A) nmol/L
- Dose-adjusted drug concentration Median (IQR), post-diet ([1]; human, in vivo): 260 (N/A) nmol/L
- Dose-adjusted drug concentration Median (IQR), pre-diet ([1]; human, in vivo): 848 (N/A) nmol/L
- Dose-adjusted drug concentration Median (IQR), Post-surgery [1, 12]: 239 (N/A) nmol/L

SMILES: CN[C@H]1CC[C@@H](c2ccc(Cl)c(Cl)c2)c2ccccc21 [Sertraline]
- Concentration, Post-surgery ([1]; Case 3, GBP, day +68, drug dose 200 mg): 66 nM
- Concentration, Post-surgery ([1]; Case 3, GBP, day +368, drug dose 200 mg): 78 nM
- Concentration, Baseline ([1]; Case 3, GBP, drug dose 200 mg): 130 nM
- Change in dose-adjusted concentration over the pre-surgery low-calorie diet [1]: decreased
- Dose-adjusted drug concentration Median (IQR), Pre-diet/pre-surgery ([1]; human, in vivo): 51 (27–84) nmol/L
- Dose-adjusted drug concentration Median (IQR), post-diet ([1]; human, in vivo): 39 (23–53) nmol/L
- Dose-adjusted drug concentration Median (IQR), pre-diet ([1]; human, in vivo): 66 (43–87) nmol/L
- concentration at 379 days after surgery (median), trough ([1]; human, in vivo): 25 nM
- Reduction of dose-adjusted concentration on the last day of sampling [1]: 51%

SMILES: CC1(C)O[C@@H]2[C@@H](CO[C@@]3(COS(N)(=O)=O)OC(C)(C)O[C@@H]23)O1 [Topiramate]
- Dose-adjusted drug concentration Median (IQR), Pre-diet/pre-surgery [1, 8]: 33 (N/A) µmol/L
- Dose-adjusted drug concentration Median (IQR), Post-surgery [1, 9]: 37 (N/A) µmol/L
- Dose-adjusted drug concentration Median (IQR), post-diet [1, 10]: 31 (N/A) µmol/L
- Dose-adjusted drug concentration Median (IQR), pre-diet [1, 11]: 39 (N/A) µmol/L

SMILES: CCCC(CCC)C(=O)O [Valproic acid]
- Dose-adjusted drug concentration Median (IQR), Pre-diet/pre-surgery [1, 8]: 533 (N/A) µmol/L
- Dose-adjusted drug concentration Median (IQR), Post-surgery [1, 9]: 529 (N/A) µmol/L
- Dose-adjusted drug concentration Median (IQR), post-diet [1, 10]: 759 (N/A) µmol/L
- Dose-adjusted drug concentration Median (IQR), pre-diet [1, 11]: 737 (N/A) µmol/L

SMILES: COc1ccc(C(CN(C)C)C2(O)CCCCC2)cc1 (stereo not drawn) [Venlafaxine]
- Dose-adjusted drug concentration Median (IQR), Pre-diet/pre-surgery [1, 4]: 173 (88–443) nmol/L
- Dose-adjusted drug concentration Median (IQR), post-diet [1, 6]: 132 (87–215) nmol/L
- Dose-adjusted drug concentration Median (IQR), pre-diet [1, 7]: 172 (79–399) nmol/L
- concentration at 379 days after surgery (median), trough ([1]; human, oral, Table 2A, trough serum, adjusted for dose in DDDs, last observation carried forward, median 379 days after surgery, read-out: Dose-adjusted drug concentration Median (IQR), Post-surgery): 168 nM

SMILES: CN(C)C(=N)N=C(N)N [metformin]
- Concentration change after the bariatric surgery procedure [3]: appeared to increase

SMILES: COc1c(N2C[C@@H]3CCCN[C@@H]3C2)c(F)cc2c(=O)c(C(=O)O)cn(C3CC3)c12 [moxifloxacin]
- Concentration change after the bariatric surgery procedure [3]: appeared to increase

SMILES: NCCC(Oc1ccc(C(F)(F)F)cc1)c1ccccc1 (stereo not drawn) [norfluoxetine]
- Course of dose-adjusted concentration after surgery [1]: continued to increase also after surgery

SMILES: CO[C@H]1C[C@@H]2CC[C@@H](C)[C@@](O)(O2)C(=O)C(=O)N2CCCC[C@H]2C(=O)O[C@H]([C@H](C)C[C@@H]2CC[C@@H](O)[C@H](OC)C2)CC(=O)[C@H](C)/C=C(\C)[C@@H](O)[C@@H](OC)C(=O)[C@H](C)C[C@H](C)/C=C/C=C/C=C/1C [sirolimus]
- Concentration change after the bariatric surgery procedure [3]: appeared to decrease
- logD ([2]; selection limit for extremely hydrophilic or extremely lipophilic substances in literature search): > 4

SMILES: CC/C(=C(\c1ccccc1)c1ccc(OCCN(C)C)cc1)c1ccccc1 [tamoxifen]
- Concentration change after the bariatric surgery procedure [3]: appeared to decrease
